Reference: patent US11725015B2, “Macrocyclic compound and uses thereof” (President and Fellows of Harvard College, priority 2017, dated 2023)

Experiments:
Format in all cases: in vivo
[1] = tested on: KPL-4 subcutaneous xenograft; experiment: Antitumor effects in the KPL-4 xenograft model in mice as monotherapy
Description: A human HER-2 positive breast cancer cell line KPL-4, which had been cultured in a DMEM containing 10% FBS, and penicillin-streptomycin, was adjusted to a concentration of 1×10^8 cells/mL with Hanks' Balanced Salt Solution to prepare a cell suspension. The cell suspension was inoculated in a volume of 100 μL into a subcutaneous part of a right flank of nude mice, 8 weeks of ages (CAnN.Cg-Foxnlnu/CrlCrlj, female, Charles River Laboratories Japan Inc.). Eleven days after cell inoculation (Day 1), the shortest diameter and the longest diameter of a tumor in each mouse were measured by using an electronic digital caliper (Digimatic™ caliper, Mitutoyo Corporation), so as to calculate the volume of the tumor in accordance with the following calculation formulae: Tumor volume (mm^3)=Longest diameter (mm)×Shortest diameter (mm)×Shortest diameter (mm)/2 Relative tumor volume (RTV)=Tumor volume (day X)/Tumor volume (the first day) Relative body weight (RBW)=Body weight (day X)/Body weight (the first day)
On the basis of the volumes of tumors obtained on Day 1, the mice were grouped such that averages of the tumor volumes were substantially equal among the groups. The experiment was conducted on groups each consisting of six mice. The test compound was dissolved in DMSO and a solution was stored in the freezer before use. Immediately before the administration, the stock solution was diluted with saline. The test compound in saline was intravenously once-weekly administered at 20 μg/kg, 60 μg/kg, or 180 μg/kg for 2 weeks (on Day 1 and Day 8).

[2] = tested on: α-SMA-positive CAFs in the FaDu subcutaneous model; experiment: Effect on α-SMA-positive CAFs in the FaDu subcutaneous model in mice (Test Example 19)
Description: A human squamous cell carcinoma of the head and neck (SCCHN) cell line FaDu, which had been cultured in an RPMI-1640 medium containing 10% FBS, and penicillin-streptomycin (culture medium), was adjusted to a concentration of 5×10^7 cells/mL with culture medium to prepare a cell suspension. The cell suspension was inoculated in a volume of 100 μL into a subcutaneous part of a right flank of nude mice, 6 weeks of ages (CAnN.Cg-Foxnlnu/CrlCrlj, female, Charles River Laboratories Japan, Inc.). Ten days after cell inoculation, the mice were grouped such that averages of the tumor volumes were substantially equal among the groups. The experiment was conducted on groups each consisting of 5 mice. Each test compound was dissolved in DMSO and a solution was stored in the freezer before use. Immediately before the administration, the stock solution was diluted with saline. The test compound in saline was intravenously administered at 20 μg/kg, […]. Two days or 5 days after the single administration, tumor samples were collected and fixed with IHC Zinc Fixative (BD Pharmingen) at 4° C. for 24 hours. Paraffin-embedded tissues were sectioned (3 μm), mounted on positively charged slides, and air-dried. Sections were deparaffinized, conditioned and the antigens were retrieved using microwave with 1 mM EDTA at pH 6.0. Sections were blocked with 1% of BSA in TBS. Mouse anti-α-SMA monoclonal antibody conjugated with alkaline phosphatase (clone 1A4, Sigma) was applied at 5 μg/mL. Sections were incubated with the antibody for 2.5 hr. […] The area of α-SMA-positive region in the whole tumor was quantified by counting the α-SMA-positive objects using inform 2 software (PerkinElmer Inc.) Area of the tumor region was measured by assessing the hematoxylin-staining area using inform 2 software (PerkinElmer Inc.). […] A suppression rate of the α-SMA-positive area of the test compound-dosing group was calculated with the below formula: α-SMA ratio=α-SMA area of the test compound-dosing group/α-SMA area of the non-treat group

EDA-fibronectin = experiment: Effect on EDA-fibronectin in the FaDu subcutaneous model in mice; conditions: Compound (1) 180 μg/kg + CTX 10 mg/kg on Day 1, five days after, compared with control tumors
Description: A human squamous cell carcinoma of the head and neck (SCCHN) cell line FaDu, which had been cultured in an RPMI-1640 medium containing 10% FBS, and penicillin-streptomycin (culture medium), was adjusted to a concentration of 5×10^7 cells/mL with culture medium to prepare a cell suspension. The cell suspension was inoculated in a volume of 100 μL into a subcutaneous part of a right flank of nude mice, 6 weeks of ages (CAnN.Cg-Foxnlnu/CrlCrlj, female, Charles River Laboratories Japan, Inc.). Ten days after cell inoculation, the mice were grouped such that averages of the tumor volumes were substantially equal among the groups. The experiment was conducted on groups each consisting of 5 mice. Compound (1) was dissolved in DMSO and a solution was stored in the freezer before use. […] Five days after the single administration, tumor samples were collected and fixed with IHC Zinc Fixative (BD Pharmingen) at 4° C. for 24 hr. Paraffin-embedded tissues were sectioned (3 μm), mounted on positively charged slides, and air-dried. Sections were deparaffinized, conditioned and the antigens were retrieved using microwave with 1 mM EDTA at pH 6.0 for Tenascin-C. For EDA-fibronectin, the antigens retrieval procedure was not necessary. […]

C=C1C[C@@H]2CC[C@@]34C[C@H]5O[C@H]6[C@@H](O3)[C@H]3O[C@H](CC[C@@H]3O[C@H]6C5O4)CC(=O)O[C@@H]3[C@@H](C)[C@@H]4O[C@@H]5C[C@]6(C[C@@H]7O[C@]8(C[C@H](C)[C@@H]9O[C@H](CN)[C@H](O)C[C@@H]9O8)C[C@H](C)[C@@H]7O6)O[C@@H]5C[C@@H]4O[C@H]3C[C@H]3O[C@@H](CC[C@@H]1O2)C[C@@H](C)C3=C [Compound (1)]
antitumor effect ([1]; 60 μg/kg intravenously on Day 1 and Day 8): tumor regression was observed
antitumor effect ([1]; 180 μg/kg intravenously on Day 1 and Day 8): tumor regression was observed
eradication of xenograft tumors ([1]; 180 μg/kg, on Day 15): completely eradicated the xenograft tumors in all mice
α-SMA positive area ([2]; single administration 180 μg/kg, Day 3): significantly reduced the α-SMA positive area
α-SMA positive area ([2]; single administration 180 μg/kg, Day 6): significantly reduced the α-SMA positive area
α-SMA positive area ([2]; single administration 60 m/kg, Day 3): significantly reduced the α-SMA positive area
expression level of ED-A fibronectin (EDA-fibronectin): reduced
